{"source": "patent US11026943B2", "about": "“Aminoquinoline derivatives and uses thereof” (UNIVERSITY OF DELHI, priority 2012, dated 2021)", "tested_on": "aphakia (ak/ak) mice", "experiment": "Behavioral studies in ak/ak mice (Pole, Challenging Beam, Cylinder, Rotarod) and SN histology", "format": "in vivo, mouse", "experimental": "Either 20 mg/kg of AQ (AQ group) or the saline (Saline group) was intraperitoneally injected (I.P.) twice per day for two weeks. 8 mg/kg of L-DOPA (L-DOPA group) in 0.5% DMSO was injected (I.P.) once per day for two weeks. The L-DOPA group was given 12.5 mg/kg benserazide 20 min prior to administration of L-DOPA.\nEach ak mouse was randomly assigned into one of three experiment groups, (1) saline group (negative control; n=8), (2) L-DOPA group (positive control; n=8), (3) AQ group (n=10). Each WT or rdl mouse was randomly divided into two groups, (1) saline group (n=8) and (2) AQ group (n=10). Pole Test, Challenging Beam Traversal Test, and Cylinder Test were performed at two time points, immediately and one month after two weeks of either AQ or saline injection. Each mouse ran each task twice. Rota rod test was performed immediately after two weeks of either drug or saline injection. Acclimation and data recording process were identical to the rat study described above. All tasks were performed as described previously^11 and the short description of each task is as follows.\nA vertical wooden pole 50 cm in length and 1 cm in diameter was used for Pole Test. Each mouse was gently placed head upwards on top of the pole which is placed on each animal's home cage. Each mouse ran tree trials per session during 2 training sessions. On the testing day, mice ran three trials. Two parameters (the meantime to orient downward and the total travel mean time) were used for the statistical analysis.\nA 1 m length of plastic beam was used for Challenging Beam Traversal Test. The starting width of the beam was 3.5 cm and it gradually narrowed in 1 c increments to 0.5 cm at the other end site of the beam. Animals were trained to walk from the wide end to the other end for 2 sessions, three trials per session before testing. A mesh grid was removed during the training period. On the testing day, a mesh grid (1 cm square) covering the beam surface was equipped leaving a […] room between the grid and the beam surface. On the testing day, mice ran three trials. Two parameters (the mean number of steps taken by each animal and the mean time to traverse across three trials) were collected and used for statistical analysis.\nA small transparent cylinder (height, 15.5 cm; diameter, 12.7 cm) was used to evaluate somatosensory motor function. Mice were placed in the cylinder and their rears were counted for 5 minutes. The forelimb touching the Plexiglas wall (a vertical movement) is defined as a full rear. The mean number of forelimb use was calculated for the statistical analysis. […]\nThe Rota rod equipment (Med-Associates, Inc, Albans, Vt., USA) was used to measure motor coordination. […] The mean latency to fall off from the Rota rod was measured for the statistical analysis. […]", "data": [{"smiles": "CCN(CC)Cc1cc(Nc2ccnc3cc(Cl)ccc23)ccc1O", "note": "[AQ, amodiaquine]", "values": [{"measurement": "motor deficits in Pole, Challenging Beam, Cylinder and Rotarod tests", "setting": "2 weeks of AQ 20 mg/kg i.p. twice per day", "value": "significantly improved"}, {"measurement": "activated microglia (CD11b) in the SN", "setting": "after AQ for 2 weeks", "value": "reduced to the level of wild type mice"}, {"measurement": "number of TH+ neurons in ak/ak mice", "setting": "data not shown", "value": "not detectably altered"}]}]}
